Measured values as given in PMC3351444, “Molecular Evolution of a Peptide GPCR Ligand Driven by Artificial Neural Networks” (PLoS ONE, 2012).
Read-outs that look alike come from different tables or passages of the source. Square brackets hold non-standard residues; d marks the D form. Peptide text beside a SMILES is read from it.

Experiments:
human CMKLR1 = molecular target: T1, human CMKLR1 (Homo sapiens, UniProt Q99788); test: Ca2+ mobilization (CellLux imaging) agonist assay in HEK293A cells expressing CMKLR1 and Gα15; format: cell-based
T1 construct: host or cells: HEK293A (Invitrogen), stably expressing human Gα15
T1 sequence (Q99788 1-373): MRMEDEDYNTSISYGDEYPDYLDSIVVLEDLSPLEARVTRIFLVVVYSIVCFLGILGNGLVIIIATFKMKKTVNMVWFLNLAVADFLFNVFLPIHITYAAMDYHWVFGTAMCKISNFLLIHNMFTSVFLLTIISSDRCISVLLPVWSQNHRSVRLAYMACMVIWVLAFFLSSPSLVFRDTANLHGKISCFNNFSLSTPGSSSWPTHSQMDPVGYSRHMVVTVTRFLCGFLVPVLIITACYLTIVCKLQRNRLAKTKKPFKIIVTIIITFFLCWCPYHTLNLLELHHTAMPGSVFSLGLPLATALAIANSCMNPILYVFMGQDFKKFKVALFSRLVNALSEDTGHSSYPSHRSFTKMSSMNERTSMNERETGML
Description: HEK293A cells (Invitrogen) expressing CMKLR1 and Gα15 were seeded at 5*10^4 cells/well in a poly-D-lysine coated 96-well black well/clear bottom plate (BD Falcon) and cultured overnight. From eighteen to twenty-four hours later, cells were loaded with FLUO4-AM (Invitrogen). Then the cells were washed two times with C1 solution (130 mM NaCl, 5 mM KCl, 10 mM HEPES pH 7.4, 2 mM CaCl2, and 10 mM Glucose). After the final wash, a 100 µL of residual volume remained on the cells. Peptides were dissolved in 10% DMSO to a concentration of 1 mM and were diluted in C1 solution with 0.1 % BSA. They were aliquoted as 2x solutions in 96-well plates and were simultaneously transferred by the robotic system within the imager from the ligand plate to the cell plate. […] Fluorescence data was generated in duplicate and experiments were repeated for at least three times. […] For the calculation of concentration-response curves, signals of two wells receiving the same concentration of test substances were averaged and the fluorescence changes of corresponding buffer C1 wells were subtracted. Signals were normalized to background fluorescence. For the calculation of EC50 values, plots of amplitude versus concentrations were prepared in SigmaPlot 11.

[1] = In vitro peptide stability in human serum (RP-HPLC); conditions: for half-life at 50 µg/mL: human, human serum, 25% (v/v) in RPMI
[2] = intracellular calcium mobilization, HEK293 cells expressing CMKLR1, mean of three independent experiments ± SD, read-out: activity: EC50 ±SD
[3] = Ca2+ mobilization, CMKLR1, decimal comma
[4] = Ca2+ mobilization, CMKLR1, decimal comma, NR where no EC50 is given, read-out: EC50

EC50 (human CMKLR1; [2]) [nM]	half-life at 50 µg/mL [1] [min]	max response (human CMKLR1; [3])	EC50 (human CMKLR1; [4]) [nM]	t1/2 ([1]; metabolic stability in human serum) [min]	Structure (SMILES)
8.62 ± 5.01	21 ± 4				C[C@H](NC(=O)[C@H](Cc1ccc(O)cc1)NC(=O)[C@H](CCC(N)=O)NC(=O)CNC(=O)[C@@H]1CCCN1C(=O)[C@H](CCCNC(=N)N)NC(=O)[C@@H](N)Cc1ccc(O)cc1)C(=O)N[C@@H](Cc1ccccc1)C(=O)N[C@H](CO)C(=O)O (H-YRPGQYAF[dS]-OH; N-terminus assumed)
4.17 ± 2.31	42 ± 19				CC(C)[C@H](NC(=O)[C@@H](N)Cc1ccc(O)cc1)C(=O)N1CCC[C@H]1C(=O)NCC(=O)N[C@@H](CCC(N)=O)C(=O)N[C@@H](Cc1ccccc1)C(=O)N[C@@H](C)C(=O)N[C@@H](Cc1ccccc1)C(=O)N[C@H](Cc1ccccc1)C(=O)O (H-YVPGQFAF[dF]-OH; N-terminus assumed)
3.24 ± 1.02	159 ± 56				CC(C)C[C@H](NC(=O)[C@@H](N)Cc1ccc(O)cc1)C(=O)N1CCC[C@H]1C(=O)NCC(=O)N[C@@H](CCC(N)=O)C(=O)N[C@@H](Cc1ccc(O)cc1)C(=O)N[C@H](Cc1c[nH]c2ccccc12)C(=O)N[C@@H](Cc1ccccc1)C(=O)N[C@H](Cc1ccccc1)C(=O)O [YLPGQYwFf] (H-YLPGQY[dW]F[dF]-OH; N-terminus assumed)
4.42 ± 3.41	110 ± 26				CC(C)C[C@H](NC(=O)[C@@H](N)Cc1ccc(O)cc1)C(=O)N1CCC[C@H]1C(=O)N[C@H](C)C(=O)N[C@@H](CCC(N)=O)C(=O)N[C@@H](Cc1ccc(O)cc1)C(=O)N[C@@H](C)C(=O)N[C@@H](Cc1ccccc1)C(=O)N[C@H](CO)C(=O)O [YLPaQYAFs] (H-YLP[dA]QYAF[dS]-OH; N-terminus assumed)
4.24 ± 1.87	87 ± 19				CC(C)C[C@H](NC(=O)[C@@H](N)Cc1ccc(O)cc1)C(=O)N1CCC[C@H]1C(=O)N[C@H](CCC(N)=O)C(=O)N[C@@H](CCC(N)=O)C(=O)N[C@@H](Cc1ccc(O)cc1)C(=O)N[C@@H](C)C(=O)N[C@@H](Cc1ccccc1)C(=O)N[C@H](Cc1ccccc1)C(=O)O [YLPqQYAFf] (H-YLP[dQ]QYAF[dF]-OH; N-terminus assumed)
	24	0,97 DF/F0	0.77		CC(C)C[C@H](NC(=O)[C@@H](N)Cc1ccc(O)cc1)C(=O)N1CCC[C@H]1C(=O)NCC(=O)N[C@@H](CCC(N)=O)C(=O)N[C@@H](Cc1ccccc1)C(=O)N[C@H](Cc1ccccc1)C(=O)N[C@@H](Cc1ccccc1)C(=O)N[C@@H](CO)C(=O)O [compound 28] (H-YLPGQF[dF]FS-OH; N-terminus assumed)
		0,96 DF/F0		42	CC(C)[C@H](NC(=O)[C@@H](N)Cc1ccc(O)cc1)C(=O)N1CCC[C@H]1C(=O)NCC(=O)N[C@@H](CCC(N)=O)C(=O)N[C@@H](Cc1ccccc1)C(=O)N[C@@H](C)C(=O)N[C@@H](Cc1ccccc1)C(=O)N[C@H](Cc1ccccc1)C(=O)O [compound 35] (H-YVPGQFAF[dF]-OH; N-terminus assumed)
	45	0,94 DF/F0	7.23		CC(C)C[C@H](NC(=O)[C@@H](N)Cc1ccc(O)cc1)C(=O)N1CCC[C@H]1C(=O)NCC(=O)N[C@@H](CCC(N)=O)C(=O)N[C@@H](Cc1ccccc1)C(=O)N[C@H](Cc1c[nH]c2ccccc12)C(=O)N[C@@H](Cc1ccccc1)C(=O)N[C@@H](CO)C(=O)O [compound 41] (H-YLPGQF[dW]FS-OH; N-terminus assumed)
	30	1,07 DF/F0	8.93		CC(C)C[C@H](NC(=O)[C@@H](N)Cc1ccc(O)cc1)C(=O)N1CCC[C@H]1C(=O)NCC(=O)N[C@@H](CCC(N)=O)C(=O)N[C@@H](Cc1ccccc1)C(=O)N[C@@H](C)C(=O)N[C@H](Cc1ccccc1)C(=O)N[C@@H](Cc1ccccc1)C(=O)O [compound 42] (H-YLPGQFA[dF]F-OH; N-terminus assumed)
	230	0,73 DF/F0	92.9		CC(C)C[C@H](NC(=O)[C@H](N)Cc1ccccc1)C(=O)N1CCC[C@H]1C(=O)NCC(=O)N[C@@H](CCC(N)=O)C(=O)N[C@@H](Cc1ccc(O)cc1)C(=O)N[C@@H](C)C(=O)N[C@@H](Cc1ccccc1)C(=O)N[C@@H](Cc1ccccc1)C(=O)O [compound 55] (H-[dF]LPGQYAFF-OH; N-terminus assumed)
	26	0,89 DF/F0	119		CC(C)C[C@H](NC(=O)[C@@H](N)Cc1ccc(O)cc1)C(=O)N1CCC[C@H]1C(=O)NCC(=O)N[C@@H](CCC(N)=O)C(=O)N[C@@H](Cc1ccccc1)C(=O)N[C@H](Cc1ccc(O)cc1)C(=O)N[C@@H](Cc1ccccc1)C(=O)N[C@@H](CO)C(=O)O [compound 57] (H-YLPGQF[dY]FS-OH; N-terminus assumed)
	33	0,81 DF/F0	286		CC(C)C[C@H](NC(=O)[C@@H]1CCCN1)C(=O)N1CCC[C@H]1C(=O)NCC(=O)N[C@@H](CCC(N)=O)C(=O)N[C@H](Cc1ccccc1)C(=O)N[C@@H](C)C(=O)N[C@@H](Cc1ccccc1)C(=O)N[C@@H](Cc1ccccc1)C(=O)O [compound 58] (H-PLPGQ[dF]AFF-OH; N-terminus assumed)
	41	0,73 DF/F0	456		CC(C)C[C@H](NC(=O)[C@@H](N)Cc1ccccc1)C(=O)N1CCC[C@H]1C(=O)NCC(=O)N[C@@H](CCC(N)=O)C(=O)NCC(=O)N[C@H](Cc1ccccc1)C(=O)N[C@@H](Cc1ccccc1)C(=O)N[C@@H](CO)C(=O)O [compound 61] (H-FLPGQG[dF]FS-OH; N-terminus assumed)
	31	0,66 DF/F0	2460		CC(C)C[C@H](NC(=O)[C@@H](N)CCC(N)=O)C(=O)N1CCC[C@H]1C(=O)NCC(=O)N[C@@H](CCC(N)=O)C(=O)N[C@@H](Cc1ccccc1)C(=O)N[C@@H](C)C(=O)N[C@H](Cc1ccccc1)C(=O)N[C@@H](Cc1ccccc1)C(=O)O [compound 71] (H-QLPGQFA[dF]F-OH; N-terminus assumed)
	218	0,64 DF/F0	2610		CC(C)C[C@H](NC(=O)[C@H](Cc1ccccc1)NC(=O)CNC(=O)[C@@H]1CCCN1C(=O)[C@H](CC(C)C)NC(=O)[C@@H](N)Cc1ccccc1)C(=O)N[C@@H](C)C(=O)N[C@@H](CC(C)C)C(=O)N1CCC[C@@H]1C(=O)O [compound 72] (H-FLPGFLAL[dP]-OH; N-terminus assumed)
	49	0,99 DF/F0	5580		CC(C)C[C@H](NC(=O)[C@H](Cc1ccccc1)NC(=O)[C@H](CCC(N)=O)NC(=O)CNC(=O)[C@H]1CCCN1C(=O)[C@@H](CC(C)C)NC(=O)[C@@H](N)Cc1ccc(O)cc1)C(=O)N[C@@H](Cc1ccccc1)C(=O)N[C@@H](CO)C(=O)O [compound 75] (H-Y[dL][dP]GQFLFS-OH; N-terminus assumed)
	24	1,15 DF/F0	233000		CC(C)C[C@H](NC(=O)[C@@H](N)Cc1ccc(O)cc1)C(=O)N1CCC[C@H]1C(=O)NCC(=O)N[C@@H](CCC(N)=O)C(=O)N[C@@H](C)C(=O)N[C@H](Cc1ccccc1)C(=O)N[C@@H](Cc1ccccc1)C(=O)N[C@@H](CCCCN)C(=O)O [compound 78] (H-YLPGQA[dF]FK-OH; N-terminus assumed)
	36	1,77 DF/F0	0.21		CC(C)C[C@H](NC(=O)[C@@H](N)Cc1ccc(O)cc1)C(=O)N1CCC[C@H]1C(=O)NCC(=O)N[C@@H](CCC(N)=O)C(=O)N[C@@H](Cc1ccc(O)cc1)C(=O)N[C@@H](C)C(=O)N[C@@H](Cc1ccccc1)C(=O)N[C@H](Cc1ccccc1)C(=O)O [compound 80] (H-YLPGQYAF[dF]-OH; N-terminus assumed)
